# Test results from patent US5650395A, “Treatment of pulmonary hypertension” (priority 1995, dated 1997).
# Where a SMILES comes first, the peptide text is derived from it. Where no end group is shown, it is not given here. [ ]: non-standard residue; d: D form. dPhe(F5) = N[C@H](Cc1c(F)c(F)c(F)c(F)c1F)C(=O)O
# Columns and labels:
# GRP receptor [1] = target: T1, GRP receptor (Rattus norvegicus, UniProt P52500); assay: GRP receptor binding assay ([125I-Tyr4]bombesin, AR42J cell membranes); conditions: 30 min, 4° C., read-out: IC50 (concentration required to inhibit 50% of specific binding of [125I-Tyr4]bombesin)
# T1 construct: endogenous in cells; host or cells: Rat AR42J cells
# T1 sequence (P52500 whole entry): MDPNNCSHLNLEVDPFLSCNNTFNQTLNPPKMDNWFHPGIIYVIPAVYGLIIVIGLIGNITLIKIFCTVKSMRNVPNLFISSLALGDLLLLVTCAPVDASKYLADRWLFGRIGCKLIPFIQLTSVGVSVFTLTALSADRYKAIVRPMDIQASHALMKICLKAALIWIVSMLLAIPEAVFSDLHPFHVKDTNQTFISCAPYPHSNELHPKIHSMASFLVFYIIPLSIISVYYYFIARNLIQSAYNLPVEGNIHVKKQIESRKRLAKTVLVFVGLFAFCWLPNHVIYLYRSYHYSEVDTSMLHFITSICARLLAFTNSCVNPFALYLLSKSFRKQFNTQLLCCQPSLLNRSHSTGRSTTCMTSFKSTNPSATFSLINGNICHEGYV
# Experimental: Membranes for the GRP receptor binding assay were obtained by homogenizing cultured AR42J cells (ATCC No. CRL-1492; American Type Culture Collection, Rockville, Md.) using a Polytron homogenizer (Brinkman Instruments, Westchester, N.Y.) at a setting of 6 for 15 sec. in an ice-cold 50 mM Tris-HCl buffer (Buffer A; Sigma, St. Louis, Mo.). See Singh, et al., 258 Am. J. Physiol. […] (1990). The homogenate was centrifuged twice at 39,000×g (10 min.) with an intermediate resuspension in fresh Buffer A. The final pellets were resuspended in Buffer A containing 0.1 mg/ml bacitracin and 0.1% bovine serum albumin (Buffer B) and held on ice for the receptor binding assay. Both bacitracin and bovine serum albumin were purchased from Sigma, St. Louis, Mo. Aliquots (0.4 ml) of the cell suspension were incubated with 0.05 ml of [^[…] ] bombesin (~2200 Ci/mmol; New England Nuclear, Boston, Mass.) in Buffer B and 0.05 ml of the test peptide (e.g., BIM-26226) at various concentrations (e.g., 0M to 10^-6 M) in Buffer B. […] Louis, Mo.). The filters were then washed three times with 5 ml aliquots of ice-cold Buffer A. Specific binding was defined as the total [^[…] ]bombesin bound in the presence of the test peptide minus that bound in the presence of 1 μM unlabeled GRP. […] BIM-26226, thus, has a high affinity for the GRP receptor. In other words, it is a GRP ligand.
# GRP receptor [2] = target: T1, GRP receptor; assay: Calcium mobilization assay in AR42J cells (Fura-2AM); format: cell-based; conditions: for increase of intracellular calcium concentration: peptide alone at 10 nM, AR42J cells
# Experimental: A working example follows:
# Rat AR42J cells were cultured in DMEM medium containing 10% fetal bovine serum (Sigma, St. Louis, Mo.) in an atmosphere of 5% CO2 and 95% air at 37° C. After 5 days of culture, the cells were harvested by incubating in a 0.3% EDTA/phosphate buffered saline solution (Sigma, St. Louis, Mo.) (25° C.) and washed twice by centrifugation. The washed cells were resuspended in Hank's-buffered saline solution (HBSS) (Sigma, St. Louis, Mo.) for loading of the fluorescent Ca^2+ indicator Fura-2AM (Molecular Probes, Eugene, Oreg.). Cell suspensions of approximately 10^6 cells/ml were incubated with 2 μM Fura-2AM for 30 min at 25° C. Unloaded Fura-2AM was removed by centrifugation (twice) in HBSS, and the final cell suspensions were transferred to a spectrofluorometer (Hitachi F-2000, Tokyo, Japan) equipped with a magnetic stirring mechanism and a temperature-regulated cuvette holder. After equilibration to 37° C., a test peptide or a known GRP […] was added for measurement of Ca^2+ mobilization. The excitation and emission wavelengths were 340 and 510 nm, respectively.
# [3] = test system: patient with pulmonary hypertension; assay: Infusion in a patient with pulmonary hypertension secondary to liver disease (Swan-Ganz catheterization); format: in vivo, human
# From the text: BIM-26226, a bombesin antagonist, was further administered to a patient to test its efficacy in lowering the pulmonary systolic or diastolic pressure.
# The patient, complained of increasing shortness of breath under moderate exertion. […] A clinical diagnosis of pulmonary hypertension, secondary to liver disease, was made.
# An 8 G french introducer (Arrow, Reading, Pa.) was inserted into the right internal jugular vein of the patient. A 7 G french triple lumen-balloon inflation lumen Swan-Ganz line (Abbot, N. Chicago, Ill.) was inserted through the introducer. The catheter was first floated through the right atrium and ventricle into the pulmonary artery, and was then connected to a Hewlett Packard monitor (Model 66s, M1166A) using modules M1006A, M1020A, 1029A, 1008A, and M1166A. Measurements of central venous pressure, pulmonary artery pressure, mean pulmonary pressure, cardiac index, cardiac output, and pulmonary vascular resistance were analyzed directly. A 20 G arterial line was inserted into the left radial artery (Arrow, Reading, Pa.) for measurement of systemic blood pressure and blood gas partial pressure estimations.
# The study was conducted in two phases. The placebo phase, which lasted 24 hours, consisted of an infusion of normal saline (0.9% NaCl) at a constant rate of 50 ml/hr. The active phase consisted of an infusion of BIM-26226 in increasing concentrations. BIM-26226 was supplied as lyophilized powder. BIM-26226 was reconstituted in water, and then diluted in normal saline initially to give an infusion concentration of 5 μg/kg/hr. The concentration was increased every four hours to a maximum of 200 mcg/kg/hr. BIM-26226 was administered through the jugular line at a constant infusion rate of 50 ml/hr. Observations as detailed above were recorded at least hourly, though more often if indicated. In addition, blood samples were taken every four hours for biochemical profile, hematological screening, and both peripheral and central GRP levels. The GRP level samples were collected on ice, centrifuged, and snap-frozen. Analysis on the GRP levels was performed using an established radioimmunoassay.
# FIG. 1 summarizes the study. The pulmonary systolic and diastolic pressures are compared between both the infusion of the saline placebo (Plac sys and Plac dias) and BIM-26226 (BIM sys and BIM dias). The doses of BIM-26226 administered and the administration scheme are shown at the top of FIG. 1, e.g., 5 μg/kg/hr four hours initially.
# pulmonary haemodynamics = conditions: wide range of experimental conditions; cited from earlier work
# [4] = test system: isolated pulmonary arteries; conditions: cited from earlier work
compound,measurement,setting,value
"COC(=O)[C@H](CC(C)C)NC(=O)[C@H](Cc1c[nH]cn1)NC(=O)[C@@H](C)NC(=O)[C@@H](NC(=O)[C@H](C)NC(=O)[C@H](Cc1c[nH]c2ccccc12)NC(=O)[C@H](CCC(N)=O)NC(=O)[C@H](N)Cc1c(F)c(F)c(F)c(F)c1F)C(C)C [BIM-26226, H-D-F5 -Phe-Gln-TrP-Ala-Val-D-Ala-His-Leu-O-CH3] (H-[dPhe(F5)]QWAV[dA]HL-OMe)",IC50,GRP receptor [1],0.5 nM
same,increase of intracellular calcium concentration,GRP receptor [2],no effect
same,increase of intracellular calcium concentration by bombesin (10 nM) after pretreatment with antagonist,GRP receptor [2]; pretreated with BIM-26226 (10 nM),300 nM
same,reduction of bombesin-induced calcium increase versus bombesin alone,"GRP receptor [2]; pretreated with BIM-26226 (10 nM), bombesin 10 nM",205 nM
same,adverse events,[3]; active phase of infusion,"Other than a mild urticarial response during the early active phase, the patient had no adverse events"
same,pulmonary diastolic pressure,"[3]; infusion rate of 200 μg/kg/hr, from 35 mm Hg",42 mm Hg
same,pulmonary systolic pressure,"[3]; infusion rate of 200 μg/kg/hr, from 90 mm Hg",55 mm Hg
same,infusion rate at which pulmonary systolic pressure started to decrease,"[3]; intravenous infusion, increasing doses every four hours",25 µg/kg/h
same,pulmonary systolic pressure upon rechallenge,[3]; rechallenge after discontinuation,again dramatically decreased
same,blood biochemistry,[3]; upon infusion,no changes
same,cardiac index,[3]; upon infusion,no changes
same,cardiac output,[3]; upon infusion,no changes
same,peripheral vascular resistance,[3]; upon infusion,no changes
same,right atrial pressure,[3]; upon infusion,no changes
same,systemic blood pressure,[3]; upon infusion,no changes
same,period over which pulmonary pressure rose upon discontinuation of drug administration,[3]; within two half-lives of the drug,15 min
"GRP: 27-amino acid peptide first isolated from the porcine gut (APVSVGGGTVLAKMYPRGNHWAVGHLM; ends and bridges not checked; UniProt P63153 24-50, looked up)",in vivo pulmonary haemodynamic effect,pulmonary haemodynamics,"neither bombesin nor GRP, under a wide range of experimental conditions, have any demonstrable in vivo pulmonary haemodynamic effect"
"COc1ccc([C@@H]2Sc3ccccc3N(CCN(C)C)C(=O)[C@@H]2OC(C)=O)cc1 [diltiazem, reference compound]",effect on pulmonary pressure (therapeutic trial),"[3]; patient, before the BIM-26226 study",did not lower the pulmonary pressure
CSCC[C@H](NC(=O)[C@H](CC(C)C)NC(=O)[C@H](Cc1cnc[nH]1)NC(=O)CNC(=O)[C@@H](NC(=O)[C@H](C)NC(=O)[C@H](Cc1c[nH]c2ccccc12)NC(=O)[C@H](CCC(N)=O)NC(=O)[C@H](CC(N)=O)NC(=O)CNC(=O)[C@H](CC(C)C)NC(=O)[C@H](CCCN=C(N)N)NC(=O)[C@H](CCC(N)=O)NC(=O)[C@@H]1CCC(=O)N1)C(C)C)C(N)=O [Bombesin],increase of intracellular calcium concentration,GRP receptor [2],505 nM
same,effect on isolated pulmonary arteries,[4],not to have an effect
same,in vivo pulmonary haemodynamic effect,pulmonary haemodynamics,"neither bombesin nor GRP, under a wide range of experimental conditions, have any demonstrable in vivo pulmonary haemodynamic effect"
